Measured values taken from ChEMBL document CHEMBL4376816, “Discovery of the Oral Leukotriene C4 Synthase Inhibitor (1S,2S)-2-({5-[(5-Chloro-2,4-difluorophenyl)(2-fluoro-2-methylpropyl)amino]-3-methoxypyrazin-2-yl}carbonyl)cyclopropanecarboxylic Acid (AZD9898) as a New Treatment for Asthma” (J Med Chem, 2019).
In brackets after ≈: the same amount, converted by molar mass. Each block holds one molecule with its values, some of them ahead of it. Activity calls are given as the source filed them. The calls are words filed in the database; no cut-off is given here.

Tests used:
Cytochrome P450 2D6 = Cytochrome P450 2D6 (Homo sapiens, UniProt P10635); experiment: Inhibition of recombinant human CYP2D6 using coumarin based substrate by fluorescence assay; format: ADME
Chain of Cytochrome P450 2D6 (P10635 whole entry): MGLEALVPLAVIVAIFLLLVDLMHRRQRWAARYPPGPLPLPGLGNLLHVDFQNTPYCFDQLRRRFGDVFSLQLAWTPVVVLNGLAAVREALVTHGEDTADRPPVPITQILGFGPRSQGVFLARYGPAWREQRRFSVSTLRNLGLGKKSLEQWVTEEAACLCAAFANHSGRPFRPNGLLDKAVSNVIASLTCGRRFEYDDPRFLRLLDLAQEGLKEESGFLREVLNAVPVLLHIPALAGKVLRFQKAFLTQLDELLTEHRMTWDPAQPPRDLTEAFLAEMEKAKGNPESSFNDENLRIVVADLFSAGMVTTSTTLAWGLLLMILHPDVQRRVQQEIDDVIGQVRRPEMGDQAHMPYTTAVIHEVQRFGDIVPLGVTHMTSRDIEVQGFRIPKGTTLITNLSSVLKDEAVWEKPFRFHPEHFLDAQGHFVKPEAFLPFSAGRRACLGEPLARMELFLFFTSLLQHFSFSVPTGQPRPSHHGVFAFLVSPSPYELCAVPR

Cytochrome P450 2C19 = Cytochrome P450 2C19 (Homo sapiens, UniProt P33261); experiment: Inhibition of recombinant human CYP2C19 using coumarin based substrate by fluorescence assay; format: ADME
Chain of Cytochrome P450 2C19 (P33261 whole entry): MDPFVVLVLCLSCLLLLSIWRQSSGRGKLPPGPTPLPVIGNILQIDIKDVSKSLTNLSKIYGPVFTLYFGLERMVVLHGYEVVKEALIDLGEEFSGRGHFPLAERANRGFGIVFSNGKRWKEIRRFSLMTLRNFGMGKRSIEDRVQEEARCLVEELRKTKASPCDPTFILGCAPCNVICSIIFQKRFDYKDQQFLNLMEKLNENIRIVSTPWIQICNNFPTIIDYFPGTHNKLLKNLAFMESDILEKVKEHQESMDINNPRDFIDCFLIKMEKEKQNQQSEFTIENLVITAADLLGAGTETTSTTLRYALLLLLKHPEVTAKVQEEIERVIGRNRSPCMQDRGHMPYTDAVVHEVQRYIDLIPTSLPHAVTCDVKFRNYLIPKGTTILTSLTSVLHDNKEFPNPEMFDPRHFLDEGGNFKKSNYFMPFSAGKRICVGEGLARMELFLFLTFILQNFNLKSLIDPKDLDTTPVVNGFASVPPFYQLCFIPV

[1] = Cmax in po dosed rat at NOAEL measured after 7 days; format: ADME, organism-based; set-up: route oral; details: in vivo
[2] = Effective half life in Han Wistar rat at 0.5 mg/kg, iv or 1 mg/kg, po after 24 hrs; format: ADME, organism-based; details: in vivo, read-out: t1/2eff (converted)
[3] = Intrinsic clearance in human hepatocytes at 1 uM assessed as per million cells after 2 to 60 mins by LC-MS/MS analysis; format: ADME, cell-based, Hepatocyte; details: read-out: CLH
[4] = Effective half life in Beagle dog at 1 mg/kg, iv infusion or 2 mg/kg, po via gavage after 48 hrs; format: ADME, organism-based, Canis lupus familiaris; details: in vivo, read-out: t1/2eff (converted)
[5] = Oral bioavailability in Beagle dog at 2 mg/kg via gavage after 48 hrs; format: ADME, organism-based, Canis lupus familiaris; details: in vivo
Cytochrome P450 3A4 = Cytochrome P450 3A4 (Homo sapiens, UniProt P08684); experiment: Inhibition of recombinant human CYP3A4 expressed in Escherichia coli using coumarin based substrate by fluorescence assay; format: ADME
Chain of Cytochrome P450 3A4 (P08684 whole entry): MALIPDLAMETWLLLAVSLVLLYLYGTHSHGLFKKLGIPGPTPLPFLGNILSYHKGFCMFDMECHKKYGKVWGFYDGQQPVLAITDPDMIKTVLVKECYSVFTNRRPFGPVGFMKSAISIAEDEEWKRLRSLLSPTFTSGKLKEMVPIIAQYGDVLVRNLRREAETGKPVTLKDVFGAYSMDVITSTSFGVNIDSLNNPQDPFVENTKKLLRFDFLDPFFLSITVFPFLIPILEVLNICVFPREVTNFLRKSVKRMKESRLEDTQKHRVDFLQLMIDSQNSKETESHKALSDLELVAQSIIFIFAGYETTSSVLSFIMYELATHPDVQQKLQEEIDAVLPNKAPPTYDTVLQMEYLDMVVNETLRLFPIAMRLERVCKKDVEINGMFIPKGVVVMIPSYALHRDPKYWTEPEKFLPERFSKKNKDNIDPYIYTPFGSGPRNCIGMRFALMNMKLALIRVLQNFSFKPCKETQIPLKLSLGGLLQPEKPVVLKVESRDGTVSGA

[6] = AUC in po dosed rat at LOAEL measured after 7 days; format: ADME, organism-based; details: in vivo
[7] = Toxicity in rat assessed as bilirubinemia at 300 mg/kg, po after 7 days; format: organism-based; details: in vivo
[8] = Displacement of [3H]-GABA/[3]-muscimol from GABA gated chloride channel in Sprague-Dawley rat cortical synoptic membranes by liquid scintillation analysis
[9] = Clearance in Beagle dog at 1 mg/kg, iv infusion or 2 mg/kg, po via gavage after 48 hrs; format: ADME, organism-based, Canis lupus familiaris; details: in vivo
[10] = Clearance in Han Wistar rat at 0.5 mg/kg, iv or 1 mg/kg, po after 24 hrs; format: ADME, organism-based; details: in vivo
Cytochrome P450 2C9 = Cytochrome P450 2C9 (Homo sapiens, UniProt P11712); experiment: Inhibition of recombinant human CYP2C9 expressed in Escherichia coli using coumarin based substrate by fluorescence assay; format: ADME
Chain of Cytochrome P450 2C9 (P11712 whole entry): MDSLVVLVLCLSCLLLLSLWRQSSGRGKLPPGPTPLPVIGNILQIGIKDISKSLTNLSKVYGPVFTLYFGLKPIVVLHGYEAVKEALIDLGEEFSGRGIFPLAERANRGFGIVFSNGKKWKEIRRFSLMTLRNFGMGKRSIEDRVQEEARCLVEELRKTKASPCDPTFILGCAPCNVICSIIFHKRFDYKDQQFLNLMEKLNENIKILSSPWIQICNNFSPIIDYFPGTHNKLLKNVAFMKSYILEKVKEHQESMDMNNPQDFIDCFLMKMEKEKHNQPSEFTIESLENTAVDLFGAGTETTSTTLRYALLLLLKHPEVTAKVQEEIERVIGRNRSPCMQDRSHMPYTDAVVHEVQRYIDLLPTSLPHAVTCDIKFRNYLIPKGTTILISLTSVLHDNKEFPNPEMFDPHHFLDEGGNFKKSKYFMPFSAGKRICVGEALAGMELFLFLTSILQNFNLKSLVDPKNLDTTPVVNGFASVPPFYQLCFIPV

[11] = Apparent permeability across apical to basolateral side in human Caco2 cells; details: Caco-2
[12] = Fraction unbound in Beagle dog plasma by equilibrium dialysis based LC-MS analysis; format: ADME, cell-free, Canis lupus familiaris
[13] = Fraction unbound in Sprague-Dawley rat plasma by equilibrium dialysis based LC-MS analysis; format: ADME, cell-free
[14] = AUC in po dosed rat at NOAEL measured after 7 days; format: ADME, organism-based; details: in vivo
[15] = Toxicity in rat assessed as unilateral sperm granuloma at 300 mg/kg, po after 7 days; format: organism-based; details: in vivo
Cytochrome P450 1A2 = target: T1, Cytochrome P450 1A2 (Homo sapiens, UniProt P05177); experiment: Inhibition of recombinant human CYP1A2 using coumarin based substrate by fluorescence assay; format: ADME
T1 sequence (P05177 whole entry): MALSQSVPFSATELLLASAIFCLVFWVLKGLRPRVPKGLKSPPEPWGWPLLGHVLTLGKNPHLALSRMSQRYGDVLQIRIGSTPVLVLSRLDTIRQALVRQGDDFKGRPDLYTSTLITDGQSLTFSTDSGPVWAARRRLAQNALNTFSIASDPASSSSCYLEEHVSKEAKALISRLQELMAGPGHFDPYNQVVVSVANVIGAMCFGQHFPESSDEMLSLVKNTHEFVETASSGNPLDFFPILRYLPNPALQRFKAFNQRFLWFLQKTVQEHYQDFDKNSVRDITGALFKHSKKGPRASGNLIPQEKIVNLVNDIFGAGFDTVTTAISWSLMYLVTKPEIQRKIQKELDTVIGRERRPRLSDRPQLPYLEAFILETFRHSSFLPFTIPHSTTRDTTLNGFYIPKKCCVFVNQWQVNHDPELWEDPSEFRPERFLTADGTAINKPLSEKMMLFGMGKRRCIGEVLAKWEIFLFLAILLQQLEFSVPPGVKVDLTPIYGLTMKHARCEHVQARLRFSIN

[16] = Volume of distribution at steady state in Beagle dog at 1 mg/kg, iv infusion or 2 mg/kg, po via gavage after 48 hrs; format: ADME, organism-based, Canis lupus familiaris; details: in vivo, read-out: Vdss
[17] = target: T2, Solute carrier organic anion transporter family member 1B1 (Homo sapiens, UniProt Q9Y6L6); experiment: Inhibition of OATP1B1 (unknown origin) expressed in HEK293 cells measured after 0.5 to 20 mins by scintillation counting analysis; format: ADME, cell-based
T2 sequence (Q9Y6L6 whole entry): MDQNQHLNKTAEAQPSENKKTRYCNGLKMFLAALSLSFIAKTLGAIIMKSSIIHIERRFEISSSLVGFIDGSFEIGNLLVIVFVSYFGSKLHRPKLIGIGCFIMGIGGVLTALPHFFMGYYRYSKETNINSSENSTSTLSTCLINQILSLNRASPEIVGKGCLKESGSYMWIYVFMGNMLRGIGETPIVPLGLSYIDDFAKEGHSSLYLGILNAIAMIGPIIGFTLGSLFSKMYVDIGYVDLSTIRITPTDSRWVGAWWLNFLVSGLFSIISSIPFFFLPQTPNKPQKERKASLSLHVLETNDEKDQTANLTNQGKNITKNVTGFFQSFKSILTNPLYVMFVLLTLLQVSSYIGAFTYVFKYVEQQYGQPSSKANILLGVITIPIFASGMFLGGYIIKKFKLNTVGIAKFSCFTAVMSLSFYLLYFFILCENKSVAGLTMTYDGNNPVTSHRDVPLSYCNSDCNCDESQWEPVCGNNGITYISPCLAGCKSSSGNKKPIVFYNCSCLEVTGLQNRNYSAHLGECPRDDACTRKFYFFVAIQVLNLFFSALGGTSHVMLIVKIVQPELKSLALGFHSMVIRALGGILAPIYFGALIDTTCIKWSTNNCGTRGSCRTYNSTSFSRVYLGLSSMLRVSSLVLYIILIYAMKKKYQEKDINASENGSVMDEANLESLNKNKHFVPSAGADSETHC

[18] = Cmax in po dosed rat at LOAEL measured after 7 days; format: ADME, organism-based; set-up: route oral; details: in vivo
[19] = Fraction unbound in human plasma by equilibrium dialysis based LC-MS analysis; format: ADME, cell-free
[20] = Octanol/Sodium phosphate buffer partition coefficient, log D of compound at pH 7.4 at 1 mg incubated for overnight under shaking condition by LC-MS/MS analysis; format: physicochemical
Rattus norvegicus = experiment: In vivo inhibition of LTC4S in po dosed Sprague-Dawley rat assessed as unbound drug concentration required for inhibition of calcium ionophore A23187-induced cysteinyl leukotrienes production in BAL fluid by LC-MS/MS analysis; format: functional
[21] = Toxicity in rat assessed as sperm granuloma at 300 mg/kg, po after 7 days; format: organism-based; details: in vivo
[22] = Thermodynamic solubility of compound in pH 7.4 PBS at 1 mg/ml incubated for 24 hrs under shaking condition by LC-MS/MS analysis; format: physicochemical; details: read-out: Therm_solubility
[23] = Toxicity in rat assessed as liver hypertrophy at 300 mg/kg, po after 7 days; format: organism-based; details: in vivo
[24] = target: Voltage-gated inwardly rectifying potassium channel KCNH2 (Homo sapiens, UniProt Q12809); experiment: Inhibition of human ERG by electrophysiology based assay
Chain of Voltage-gated inwardly rectifying potassium channel KCNH2 (Q12809 whole entry): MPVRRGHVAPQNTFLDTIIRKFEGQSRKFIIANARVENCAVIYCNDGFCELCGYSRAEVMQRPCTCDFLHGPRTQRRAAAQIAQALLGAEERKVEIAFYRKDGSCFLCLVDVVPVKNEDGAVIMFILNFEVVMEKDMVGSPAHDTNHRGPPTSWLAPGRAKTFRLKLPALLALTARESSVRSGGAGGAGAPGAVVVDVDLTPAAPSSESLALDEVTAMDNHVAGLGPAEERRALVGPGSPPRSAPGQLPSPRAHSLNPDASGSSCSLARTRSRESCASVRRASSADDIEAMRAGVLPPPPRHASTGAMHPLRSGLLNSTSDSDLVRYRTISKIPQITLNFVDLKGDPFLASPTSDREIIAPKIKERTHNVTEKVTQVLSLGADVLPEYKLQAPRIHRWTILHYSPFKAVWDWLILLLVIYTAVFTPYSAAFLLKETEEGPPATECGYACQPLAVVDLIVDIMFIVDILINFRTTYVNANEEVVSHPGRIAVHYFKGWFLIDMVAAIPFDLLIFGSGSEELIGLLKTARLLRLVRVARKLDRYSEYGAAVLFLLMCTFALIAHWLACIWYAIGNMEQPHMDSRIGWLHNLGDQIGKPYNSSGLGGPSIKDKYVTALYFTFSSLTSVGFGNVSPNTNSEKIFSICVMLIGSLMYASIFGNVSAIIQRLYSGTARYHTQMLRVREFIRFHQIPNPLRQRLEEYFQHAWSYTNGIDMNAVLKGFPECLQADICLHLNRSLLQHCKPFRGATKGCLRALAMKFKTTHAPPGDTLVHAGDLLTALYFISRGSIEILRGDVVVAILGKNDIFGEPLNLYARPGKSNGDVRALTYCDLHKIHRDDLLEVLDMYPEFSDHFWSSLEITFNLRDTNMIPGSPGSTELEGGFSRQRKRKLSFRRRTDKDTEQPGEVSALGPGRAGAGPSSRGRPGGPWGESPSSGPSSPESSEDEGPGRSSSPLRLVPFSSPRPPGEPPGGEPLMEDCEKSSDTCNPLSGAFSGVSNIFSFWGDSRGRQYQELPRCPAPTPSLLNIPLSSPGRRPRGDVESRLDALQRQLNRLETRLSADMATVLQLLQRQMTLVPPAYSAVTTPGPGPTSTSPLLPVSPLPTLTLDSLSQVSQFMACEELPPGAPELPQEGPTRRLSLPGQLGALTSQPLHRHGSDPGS

[25] = Volume of distribution at steady state in Han Wistar rat at 0.5 mg/kg, iv or 1 mg/kg, po after 24 hrs; format: ADME, organism-based; details: in vivo, read-out: Vdss
[26] = Oral bioavailability in Han Wistar rat at 1 mg/kg after 24 hrs; format: ADME, organism-based; details: in vivo
[27] = target: T3, Leukotriene C4 synthase (Homo sapiens) (UniProt Q16873); experiment: Inhibition of LTC4S in asthmatic human whole blood assessed as inhibition of calcium ionophore A23187 stimulated cysteinyl leukotrienes production preincuabted for 30 mins followed by calcium ionophore stimulation and measured after 10 mins by LC-MS analysis; format: tissue-based
T3 sequence (whole entry): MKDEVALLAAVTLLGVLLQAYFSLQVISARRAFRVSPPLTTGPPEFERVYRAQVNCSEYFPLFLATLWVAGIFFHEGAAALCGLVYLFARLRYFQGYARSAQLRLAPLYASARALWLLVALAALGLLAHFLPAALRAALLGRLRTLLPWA

Leukotriene C4 synthase = target: T4, Leukotriene C4 synthase (Homo sapiens, UniProt Q16873)
T4 sequence (Q16873 whole entry): T3 sequence (whole entry)

[28] = target: T3, Leukotriene C4 synthase (Homo sapiens); experiment: Inhibition of LTC4S in healthy human whole blood assessed as inhibition of calcium ionophore A23187 stimulated cysteinyl leukotrienes production preincuabted for 30 mins followed by calcium ionophore stimulation and measured after 10 mins by LC-MS analysis; format: tissue-based

- IC50 (Cytochrome P450 2D6): > 20 µM
- IC50 (Cytochrome P450 2C19): > 20 µM
- half-life [2]: 2.7 h
- hepatocyte CLint at 1 µM [3]: 5 µL/min/1e6 cells
- half-life [4]: 4.8 h
- bioavailability [5]: 91%
- IC50 (Cytochrome P450 3A4): > 20 µM
- IC50 [8]: 0.074 µM
- clearance [9]: 2.4 mL/min/kg
- clearance [10]: 12 mL/min/kg
- IC50 (Cytochrome P450 2C9): > 20 µM
- Papp A→B [11]: 105 ×10⁻⁶ cm/s
- fraction unbound [12]: 0.0021
- fraction unbound [13]: 0.0062
- IC50 (Cytochrome P450 1A2): > 20 µM
- Vd [16]: 1.1 L/kg
- INH [17]: 0.6 µM
- fraction unbound [19]: 0.0066
- logD [20]: 2.4
- solubility thermodynamic at 24 h [22]: 576 µM (≈ 260 µg/mL)
- Vd [25]: 2.8 L/kg
- bioavailability [26]: 46%
SMILES: COc1cc(N(CC2CC2)c2ccc(Cl)c3ccccc23)cnc1C(=O)[C@H]1C[C@@H]1C(=O)O
- Cmax at […] [1]: 47 µM
- AUC [6]: 1830 µM·h
- Activity [7]: Toxic
- AUC [14]: 200 µM·h
- Activity [15]: Toxic
- Cmax at […] [18]: 144 µM
- fEC50 (Rattus norvegicus): 7.5 nM
- Activity [21]: Toxic
- Activity [23]: Toxic
- inhibition (INH) [24]: Not Active

- inhibition [27]: Active
- IC50 (Leukotriene C4 synthase): < 5 µM
- inhibition [28]: Active
SMILES: CC(C)(O)c1ccccc1CC[C@@H](SCC1(CC(=O)O)CC1)c1cccc(/C=C/c2ccc3ccc(Cl)cc3n2)c1 [MONTELUKAST]
